According to patent publication US11090312B2, “Methods of treating hypogonadism with transnasal testerosterone bio-adhesive gel formulations in male with allergic rhinitis, and methods for preventing an allergic rhinitis event” (Acerus Biopharma Inc., priority 2013, dated 2021):

Assays:
[1] = Solubility of testosterone in water, solvents and oils; settings: maximum
[2] = pKa assessment of testosterone; settings: from molecular structure

C[C@]12CC[C@H]3[C@@H](CCC4=CC(=O)CC[C@@]43C)[C@@H]1CC[C@@H]2O [Testosterone, 17β-Hydroxyandrost-4-en-3-one]
Solubility in castor oil pure [1]: ≤ 3.6%
pKa [2]: no pKa value in the range 1-14
